Results taken from patent US10294202B2, “Pyrrolidinones as herbicides” (FMC Corporation, priority 2013, dated 2019).

Tests used:
wheat (winter wheat) = experiment: Test C pre-/postemergence herbicide test; format: in vivo, Triticum aestivum
Outline: (§1)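 Greenhouse pots; formulation = non-phytotoxic solvent mix + surfactant. PRE onto seeds in loam:sand; POST at 1–4 leaves (2–18 cm) in peat moss/vermiculite medium. Read-out: visual % control vs untreated, day 13–15.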

chickweed = experiment: Test C postemergence herbicide test; format: in vivo, Stellaria media
Outline: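 Response is scored visually on a 0–100 scale (100 = complete control) relative to untreated controls, 13 to 15 days after treatment. Plants were sprayed postemergence at the 1- to 4-leaf stage (2 to 18 cm tall) and kept in a greenhouse.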

pigweed = experiment: Test C pre-/postemergence herbicide test; format: in vivo, Amaranthus retroflexus
Outline: as §1

crabgrass, large = experiment: Test C pre-/postemergence herbicide test; format: in vivo, Digitaria sanguinalis
Outline: as §1

rice = experiment: Test C flooded paddy test; format: in vivo, Oryza sativa; conditions: Flood
Outline: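 Visual ratings from 0, no effect, to 100, complete control, were made against untreated controls after 13–15 greenhouse days. Compounds had gone straight into paddy water 3 cm above the soil, kept at that depth, on 2-leaf-stage plants.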

velvetleaf = experiment: Test C pre-/postemergence herbicide test; format: in vivo, Abutilon theophrasti
Outline: as §1

lambsquarters = experiment: Test C pre-/postemergence herbicide test; format: in vivo, Chenopodium album
Outline: as §1

[1] = Postemergence, 31 g ai/ha, scale 0 (no effect) to 100 (complete control)
[2] = Postemergence, 62 g ai/ha, scale 0 to 100 (0 no effect, 100 complete control)
[3] = Postemergence, 125 g ai/ha, scale 0 to 100 (0 no effect, 100 complete control)
[4] = Postemergence, 250 g ai/ha, scale 0 to 100 (0 no effect, 100 complete control)
[5] = Preemergence, 31 g ai/ha, scale 0 to 100, 0 is no effect and 100 is complete control
[6] = Preemergence, 62 g ai/ha, scale 0 to 100
[7] = Preemergence, 125 g ai/ha, scale 0 to 100 (0 no effect, 100 complete control)
[8] = 31 g ai/ha, scale 0 (no effect) to 100 (complete control)
[9] = 62 g ai/ha, scale 0 to 100 (0 no effect, 100 complete control)
[10] = 125 g ai/ha, scale 0 to 100 (0 no effect, 100 complete control)
[11] = 250 g ai/ha, scale 0 to 100 (0 no effect, 100 complete control)
[12] = 125 g ai/ha, scale of 0 to 100 where 0 is no effect and 100 is complete control, 13 to 15 days
[13] = Preemergence, 31 g ai/ha, scale 0 to 100 (0 no effect, 100 complete control)
[14] = Preemergence, 250 g ai/ha, scale 0 to 100 (0 no effect, 100 complete control)
[15] = 31 g ai/ha, scale of 0 to 100 where 0 is no effect and 100 is complete control, 13 to 15 days
[16] = 62 g ai/ha, scale of 0 to 100 where 0 is no effect and 100 is complete control, 13 to 15 days

O=C1NCC(c2ccc(F)c(F)c2)C1C(=O)Nc1cccc(F)c1F (racemic) [Compound 101]
Plant response rating, Wheat (wheat (winter wheat); [1]): 0
Plant response rating, Wheat (wheat (winter wheat); [2]): 0
Plant response rating, Wheat (wheat (winter wheat); [3]): 0
Plant response rating, Wheat (wheat (winter wheat); [4]): 0
Wheat plant response rating (wheat (winter wheat); [5]): 0
Plant response rating, Wheat (wheat (winter wheat); [6]): 20
Plant response rating, Wheat (wheat (winter wheat); [7]): 50
Plant response rating (scale of 0 to 100), Wheat (wheat (winter wheat); Preemergence, 250 g ai/ha): 55
Plant response rating, Chickweed (chickweed; [8]): 35
Plant response rating, Chickweed (chickweed; [9]): 60
Plant response rating, Chickweed (chickweed; [10]): 70
Plant response rating, Chickweed (chickweed; [11]): 80
Plant response rating, Pigweed (pigweed; [1]): 0
Plant response rating, Pigweed (pigweed; [2]): 10
Plant response rating, Pigweed (pigweed; [3]): 15
Plant response rating, Pigweed (pigweed; [4]): 45
Pigweed plant response rating (pigweed; [5]): 0
Plant response rating, Pigweed (pigweed; [6]): 0
Plant response rating, Pigweed (pigweed; [7]): 55
Plant response rating (scale of 0 to 100), Pigweed (pigweed; Preemergence, 250 g ai/ha): 85
Plant response rating, Crabgrass, Large (crabgrass, large; [1]): 25
Plant response rating, Crabgrass, Large (crabgrass, large; [2]): 50
Plant response rating, Crabgrass, Large (crabgrass, large; [3]): 80
Plant response rating, Crabgrass, Large (crabgrass, large; [4]): 85
Crabgrass, Large plant response rating (crabgrass, large; [5]): 95
Plant response rating, Crabgrass, Large (crabgrass, large; [6]): 98
Plant response rating, Crabgrass, Large (crabgrass, large; [7]): 98
Plant response rating (scale of 0 to 100), Crabgrass, Large (crabgrass, large; Preemergence, 250 g ai/ha): 100
Plant response rating, Rice (rice; [12]): 0
Plant response rating, Rice (rice; 250 g ai/ha, scale 0 to 100): 0
Plant response rating, Rice (rice; 500 g ai/ha, scale 0 to 100): 0
Plant response rating, Rice (rice; 1000 g ai/ha, scale 0 to 100): 10
Plant response rating, Velvetleaf (velvetleaf; [1]): 0
Plant response rating, Velvetleaf (velvetleaf; [2]): 0
Plant response rating, Velvetleaf (velvetleaf; [3]): 10
Plant response rating, Velvetleaf (velvetleaf; [4]): 30
Velvetleaf plant response rating (velvetleaf; [5]): 15
Plant response rating, Velvetleaf (velvetleaf; [6]): 0
Plant response rating, Velvetleaf (velvetleaf; [7]): 5
Plant response rating (scale of 0 to 100), Velvetleaf (velvetleaf; Preemergence, 250 g ai/ha): 70
Plant response rating, Lambsquarters (lambsquarters; [1]): 10
Plant response rating, Lambsquarters (lambsquarters; [2]): 25
Plant response rating, Lambsquarters (lambsquarters; [3]): 35
Plant response rating, Lambsquarters (lambsquarters; [4]): 70
Lambsquarters plant response rating (lambsquarters; [5]): 30
Plant response rating, Lambsquarters (lambsquarters; [6]): 85
Plant response rating, Lambsquarters (lambsquarters; [7]): 90
Plant response rating (scale of 0 to 100), Lambsquarters (lambsquarters; Preemergence, 250 g ai/ha): 90

O=C1NCC(c2ccc(F)c(F)c2)C1C(=O)Nc1cccc(F)c1F (stereo not drawn) [Compound 17, N-(2,3-difluorophenyl)-4-(3,4-difluorophenyl)-2-oxo-3-pyrrolidinecarboxamide]
Plant response rating, Wheat (wheat (winter wheat); [1]): 0
Plant response rating, Wheat (wheat (winter wheat); [2]): 0
Plant response rating, Wheat (wheat (winter wheat); [3]): 0
Plant response rating, Wheat (wheat (winter wheat); [4]): 0
Plant response rating, Wheat (wheat (winter wheat); [6]): 0
Plant response rating, Wheat (wheat (winter wheat); [7]): 0
Plant response rating, Chickweed (chickweed; [8]): 0
Plant response rating, Chickweed (chickweed; [9]): 0
Plant response rating, Chickweed (chickweed; [10]): 0
Plant response rating, Chickweed (chickweed; [11]): 10
Plant response rating, Pigweed (pigweed; [1]): 0
Plant response rating, Pigweed (pigweed; [2]): 0
Plant response rating, Pigweed (pigweed; [3]): 0
Plant response rating, Pigweed (pigweed; [4]): 0
Plant response rating, Pigweed (pigweed; [6]): 0
Plant response rating, Pigweed (pigweed; [7]): 50
Plant response rating, Crabgrass, Large (crabgrass, large; [1]): 0
Plant response rating, Crabgrass, Large (crabgrass, large; [2]): 0
Plant response rating, Crabgrass, Large (crabgrass, large; [3]): 45
Plant response rating, Crabgrass, Large (crabgrass, large; [4]): 70
Plant response rating, Crabgrass, Large (crabgrass, large; [6]): 98
Plant response rating, Crabgrass, Large (crabgrass, large; [7]): 100
Crabgrass, Large plant response rating (crabgrass, large; [13]): 95
Plant response rating, Crabgrass, Large (crabgrass, large; [14]): 100
Plant response rating, Rice (rice; [15]): 0
Plant response rating, Rice (rice; [16]): 0
Plant response rating, Rice (rice; [12]): 0
Plant response rating, Rice (rice; 250 g ai/ha, scale 0 to 100): 0
Plant response rating, Velvetleaf (velvetleaf; [1]): 0
Plant response rating, Velvetleaf (velvetleaf; [2]): 0
Plant response rating, Velvetleaf (velvetleaf; [3]): 0
Plant response rating, Velvetleaf (velvetleaf; [4]): 0
Plant response rating, Velvetleaf (velvetleaf; [6]): 0
Plant response rating, Velvetleaf (velvetleaf; [7]): 0
Plant response rating, Lambsquarters (lambsquarters; [1]): 0
Plant response rating, Lambsquarters (lambsquarters; [2]): 0
Plant response rating, Lambsquarters (lambsquarters; [3]): 0
Plant response rating, Lambsquarters (lambsquarters; [4]): 0
Plant response rating, Lambsquarters (lambsquarters; [6]): 60
Plant response rating, Lambsquarters (lambsquarters; [7]): 60

O=C1NCC(c2ccc(Cl)c(F)c2)C1C(=O)Nc1cccc(F)c1F (stereo not drawn) [Compound 52]
Plant response rating, Wheat (wheat (winter wheat); [1]): 0
Plant response rating, Wheat (wheat (winter wheat); [2]): 0
Plant response rating, Wheat (wheat (winter wheat); [3]): 0
Plant response rating, Wheat (wheat (winter wheat); [4]): 0
Plant response rating, Wheat (wheat (winter wheat); [6]): 0
Plant response rating, Wheat (wheat (winter wheat); [7]): 10
Plant response rating, Chickweed (chickweed; [9]): 25
Plant response rating, Chickweed (chickweed; [10]): 45
Plant response rating, Chickweed (chickweed; [11]): 60
Plant response rating, Pigweed (pigweed; [1]): 25
Plant response rating, Pigweed (pigweed; [2]): 40
Plant response rating, Pigweed (pigweed; [3]): 50
Plant response rating, Pigweed (pigweed; [4]): 60
Plant response rating, Pigweed (pigweed; [6]): 20
Plant response rating, Pigweed (pigweed; [7]): 55
Plant response rating, Crabgrass, Large (crabgrass, large; [1]): 50
Plant response rating, Crabgrass, Large (crabgrass, large; [2]): 55
Plant response rating, Crabgrass, Large (crabgrass, large; [3]): 55
Plant response rating, Crabgrass, Large (crabgrass, large; [4]): 75
Plant response rating, Crabgrass, Large (crabgrass, large; [6]): 90
Plant response rating, Crabgrass, Large (crabgrass, large; [7]): 90
Crabgrass, Large plant response rating (crabgrass, large; [13]): 80
Plant response rating, Crabgrass, Large (crabgrass, large; [14]): 95
Plant response rating, Rice (rice; [15]): 10
Plant response rating, Rice (rice; [16]): 10
Plant response rating, Rice (rice; [12]): 10
Plant response rating, Rice (rice; 250 g ai/ha, scale 0 to 100): 15
Plant response rating, Velvetleaf (velvetleaf; [1]): 10
Plant response rating, Velvetleaf (velvetleaf; [2]): 20
Plant response rating, Velvetleaf (velvetleaf; [3]): 20
Plant response rating, Velvetleaf (velvetleaf; [4]): 35
Plant response rating, Velvetleaf (velvetleaf; [6]): 5
Plant response rating, Velvetleaf (velvetleaf; [7]): 5
Plant response rating, Lambsquarters (lambsquarters; [2]): 10
Plant response rating, Lambsquarters (lambsquarters; [3]): 40
Plant response rating, Lambsquarters (lambsquarters; [4]): 40
Plant response rating, Lambsquarters (lambsquarters; [6]): 40
Plant response rating, Lambsquarters (lambsquarters; [7]): 70
